Measured values: US9447038B2 (SANOFI, priority 2012, dated 2016)
Structures can show the parent of a compound that is named as a salt.

Target: human CXCR3-A receptor (Homo sapiens (Human), UniProt P49682)
Experiment: 125I-CXCL10 competition radioligand binding assay;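 note: One-hour incubation of membranes with tracer, bound radioligand separated by glass fibre filtration, IC50 derived from four-parameter nonlinear fit of competition curves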
Conditions: displacement of 125I-CXCL10 from membranes of CHO cells expressing human recombinant CXCR3-A

Sequence of human CXCR3-A receptor (P49682 whole entry): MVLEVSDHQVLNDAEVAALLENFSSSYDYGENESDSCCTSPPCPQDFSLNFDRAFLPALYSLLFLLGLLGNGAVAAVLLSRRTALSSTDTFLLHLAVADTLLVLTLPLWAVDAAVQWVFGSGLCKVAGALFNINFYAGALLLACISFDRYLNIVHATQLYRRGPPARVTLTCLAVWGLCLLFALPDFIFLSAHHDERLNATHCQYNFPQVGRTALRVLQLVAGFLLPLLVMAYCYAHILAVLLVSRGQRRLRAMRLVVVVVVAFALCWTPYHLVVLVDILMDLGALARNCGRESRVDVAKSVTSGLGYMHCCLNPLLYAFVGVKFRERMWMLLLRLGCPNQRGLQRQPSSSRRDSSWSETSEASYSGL

Row | IC50 [nM] | Compound
1 | 234 | Cc1cc(CN(CC2CCCC2)[C@@H](CC(=O)O)c2ccc(Cl)c(Cl)c2)ccc1OCCN1C(=O)CN(C)C1=O [Example 200, (S)-3-(Cyclopentylmethyl-{3-methyl-4-[2-(3-methyl-2,5-dioxo-imidazolidin-1-yl)-ethoxy]-benzyl}-amino)-3-(3,4-dichloro-phenyl)-propionic acid; hydrochloride]
2 | 886 | CN1CC(=O)N(CCOc2ccc(CN(CC3CCCC3)[C@H](CC(=O)O)c3ccc(Cl)cc3)cc2Cl)C1=O [Example 201, (R)-3-({3-Chloro-4-[2-(3-methyl-2,5-dioxo-imidazolidin-1-yl)-ethoxy]-benzyl}-cyclopentylmethyl-amino)-3-(4-chloro-phenyl)-propionic acid]
3 | 810 | CN1CC(=O)N(CCOc2ccc(CN(CC3CCCCC3)[C@H](CC(=O)O)c3ccc(Cl)cc3)cc2Cl)C1=O [Example 202, (R)-3-({3-Chloro-4-[2-(3-methyl-2,5-dioxo-imidazolidin-1-yl)-ethoxy]-benzyl}-cyclohexylmethyl-amino)-3-(4-chloro-phenyl)-propionic acid]
4 | 197 | CCCN(Cc1ccc(OCCN2C(=O)CCC2=O)c(OC)c1)C(CC(=O)O)c1cc(C)sc1C (stereo not shown) [Example 204, 3-(2,5-Dimethyl-thiophen-3-yl)-3-({4-[2-(2,5-dioxo-pyrrolidin-1-yl)-ethoxy]-3-methoxy-benzyl}-propyl-amino)-propionic acid; hydrochloride]
